# Columns and labels:
# [1] = biological target: Ba/F3 (EGFR L858R/C797S) (Homo sapiens, UniProt P00533, C797S/L858R, cells depend on it); assay: Cell proliferation inhibitory activity assay, Ba/F3 EGFR L858R/C797S; type: cell-based; details: cell proliferation inhibition, 72 hours, luminescence; read-out: Ba/F3 cells overexpressing different EGFR mutations IC50 (nM) L858R/C797S
# Description: (§1) Suspension cells Ba/F3 (EGFR. Dell9/T790M/C797S), Ba/F3 (EGFR L858R/T790M/C797S), Ba/F3 (EGFR Del19/C797S), and Ba/F3 (EGFR L858R/C797S) overexpressing different EGFR mutations were cultured in PRMI 1640 containing 10% FBS and 1% PS, and adherent cells A431 carrying EGFR WT were cultured in DMEM containing 10% FBS and 1% PS. The experimental steps for compound activity detection are as follows: • (1) Take adherent cells in the logarithmic growth phase, digest them with trypsin count them, and then inoculate them into a 96-well plate at a certain density. Incubate them overnight at 37° C. and 5% CO2 to allow them to adhere.
# (§2) Y=minimum+([…])/(1+10^((Log IC50−X)*slope)); • X: logarithm of compound concentration; Y: cell survival inhibition rate.
# [2] = biological target: Ba/F3 (EGFR L858R/T790M/C797S) (Homo sapiens, UniProt P00533, T790M/C797S/L858R, cells depend on it); assay: Cell proliferation inhibitory activity assay, Ba/F3 EGFR L858R/T790M/C797S; type: cell-based; details: cell proliferation inhibition, 72 hours, luminescence; read-out: Ba/F3 cells overexpressing different EGFR mutations IC50 (nM) L858R/T790M/C797S
# Description: as §1, §2
# [3] = Metabolic stability of liver microsomes, human; type: in vitro ADME; details: NADPH, 0-45 min; for microsomal CLint: read-out: CLint(μL/min/mg protein) Human
# Description: (§3) The liver microsomes of human, rat, mouse and dog were used to study the metabolic stability of the compounds. The specific experimental steps are as follows: • (1) Add 40 μL MgCl2 and 306 μL PBS to each well of a 96-well plate, and then add 4 μL compound, with a final DMSO concentration of ≤0.5%. Set up a blank well without compound; • (2) Add 10 μL of 20 mg/mL liver microsomes to each well, incubate at 37° C. for 10 min; • (3) Add 40 μL NADPH working solution to each well to start the reaction, and set up a control well without NADPH; • (4) At 0, 5, 15, and 45 min after the start of the reaction, 50 μL of sample was taken out, the termination solution was added, and the mixture was shaken for 5 min. • (5) The samples were then centrifuged at 3,220 g for 10 min, and 50 μL of the supernatant was removed and was added 200 μL water for dilution and analysis by LC-MS/MS.
# (§4) The in vitro intrinsic clearance (in vitro CLint, in μL/min/mg) was calculated from the in vitro half-life t1/2 (minutes) using the following equation (mean of replicates):
# (§5) In vitro clearance rate=0.693/in vitro half-life t1/2×[incubation volume (μL)/(protein amount (mg)]
# [4] = biological target: Ba/F3 (EGFR Del19/C797S) (Homo sapiens, UniProt P00533, C797S, cells depend on it, form not given); assay: Cell proliferation inhibitory activity assay, Ba/F3 EGFR Del19/C797S; type: cell-based; details: cell proliferation inhibition, 72 hours, luminescence; read-out: Ba/F3 cells overexpressing different EGFR mutations IC50 (nM) Del19/C797S
# Description: as §1, §2
# [5] = Metabolic stability of liver microsomes, mouse; type: in vitro ADME; details: NADPH, 0-45 min; for microsomal CLint: read-out: CLint(μL/min/mg protein) Mouse
# Description: as §3, §4, §5
# [6] = system: A431 cell carrying EGFR WT; assay: Cell proliferation inhibitory activity assay, A431; type: cell-based; details: cell proliferation inhibition, 72 hours, luminescence
# Description: as §1, §2
# [7] = Metabolic stability of liver microsomes, rat; type: in vitro ADME; details: NADPH, 0-45 min; for microsomal CLint: read-out: CLint(μL/min/mg protein) Rat
# Description: as §3, §4, §5
# [8] = biological target: Ba/F3 cells overexpressing EGFR Del19/T790M/C797S (Homo sapiens, UniProt P00533, T790M/C797S, cells depend on it, form not given); assay: Cell proliferation inhibitory activity assay, Ba/F3 EGFR Del19/T790M/C797S; type: cell-based; details: cell proliferation inhibition, 72 hours, luminescence; read-out: Ba/F3 cells overexpressing different EGFR mutations IC50 (nM) Del19/T790M/C797S
# Description: as §1, §2
# [9] = Pharmacokinetics in mice; type: in vivo, mouse; details: female BALB/c mice, 5 mg/kg orally by gavage, plasma
# Description: Mouse PK studies were performed using female BALB/c mice (20-30 g). Compounds were prepared and prepared immediately before use. Mice were administered intravenously or orally by gavage. Blood was collected from the mouse orbital venous plexus, and 100 μL of whole blood was transferred to a K2-EDTA tube at each time point.
# 1 mg/kg was given intravenously, and whole blood was collected at 0.083, 0.25, 0.5, 1, 2, 4, 6 and 24 h after administration; 5 mg/kg were given orally by gavage, and whole blood was collected at 0.25, 0.5, 1, 2, 4, 6, 24 h after administration in different batches, or the mice were killed at 2, 4 and 6 h to obtain brains. Whole blood samples were centrifuged and plasma was separated; brain tissue samples were homogenized by adding 4 times the volume of buffer, and the plasma and brain tissue samples were stored in a −80° C. refrigerator for later use. After the above plasma and brain tissue samples were precipitated with acetonitrile for protein, the supernatant was taken and mixed with water in a 1:1 ratio, and 10 μL was taken for LC-MS/MS detection.
# [10] = Pharmacokinetics in rats; type: in vivo, rat; details: male SD rats, 5 mg/kg orally by gavage, plasma
# Description: Male SD rats (200-300 g) were used for rat PK studies. Compounds were prepared and prepared immediately before use. Rats were administered intravenously or orally by gavage. Blood was collected from the rats through the orbital venous plexus, and 100 μL whole blood was collected into K2-EDTA tubes at each time point.
# 1 mg/kg was given intravenously, and whole blood was collected at 0.083, 0,25, $0.5, 1, 2, 4, 7, 24, 48, and 72 h after administration; 5 mg/kg were given orally by gavage, and whole blood was collected at 0.25, 0.5, 1, 2, 4, 7, 24, 48, and 72 h after administration in different batches, or the rats were killed at 4 and 24 h to obtain brains. The brain tissue samples were homogenized by adding 4 times the volume of buffer, and the whole blood and brain tissue samples were stored in a −80° C. refrigerator for later use. After the above whole blood and brain tissue samples were precipitated with acetonitrile for protein, the supernatant was taken and mixed with water in a ratio of 1:2, and 10 μL was taken for LC-MS/MS detection.
GI50 [1] [nM],GI50 [2] [nM],GI50 [4] [nM],GI50 [8] [nM],"AUC(0-t) ([10]; rat, po) [ng·h/mL]","Cmax ([10]; rat, po, read-out: Cmax) [ng/mL]","IC50 ([6]; Homo sapiens, A-431) [nM]","half-life ([10]; rat, po) [h]",Compound,also measured
0.34,0.2,0.09,0.14,,,,,"5^6-(9-(3- methoxy- propyl)-3,9- diazaspiro[5.5] undecan-3-yl)- 2^6-methyl-5^1H- 11-oxa-4-aza- 5(2,1)-benzo[d] imidazola- 1(34),2(2,4)- dipyridinacyclo- undecaphan- 3-one [Example 76]",CLint(μL/min/mg protein) Human [3]: 8 μL/min/mg protein; CLint(μL/min/mg protein) Mouse [5]: 23 μL/min/mg protein; IC50 [6]: 586 nM; CLint(μL/min/mg protein) Rat [7]: 15.6 μL/min/mg protein
5.2,3.4,0.64,1.7,,,,,"5^6-(9-((2R,6S)-2,6- dimethyl- tetrahydro-2H- pyran-4-yl)-3,9- diazaspiro[5.5] undecan-3-yl)- 2^6-methyl-5^1H- 11-oxa-4-aza- 5(2,1)-benzo [d]imidazola- 1(3,4),2(2,4)- dipyridinacyclo- undecaphan- 3-one [Example 91]",AUClast [9]: 1495 ng·h/mL; Cmax [9]: 41.9 ng/mL; IC50 [6]: 759 nM; AUClast [10]: 1611 ng·h/mL; Cmax [10]: 42.5 ng/mL; T1/2 [10]: 26.4 h
4.7,1.6,0.5,0.8,917,57.5,700,12.4,"Cc1cc2cc(n1)-c1cnccc1OCCCCCn1c(nc3ccc(N4CCC5(CC4)CCN(C4COC4)CC5)cc31)NC2=O [Example 52, 2^6-methyl-5^6-(9-(oxetan-3-yl)-3,9-diazaspiro [5.5]undecan-3-yl)-5^1H-11-oxa-4-aza-5(2,1)-benzo[d] imidazola-1(3,4),2(2,4)-dipyridinacyclo-undecaphan-3-one]","AUC(0-t) ([9]; mouse, po): 3460 ng·h/mL; half-life ([9]; mouse, po): 20.1 h; Cmax ([9]; mouse, po, read-out: Cmax): 215 ng/mL"
5.7,3.7,0.45,2.4,,,,,"Cc1cc2cc(n1)-c1cnccc1OCCCCCn1c(nc3cc(C)c(N4CCC5(CCN(CCF)CC5)CC4)cc31)NC2=O [Example 59, 5^6-(9-(2-fluoroethyl)-3,9-diazaspiro[5.5]undecan-3-yl)-2^6,5^5-dimethyl-5^1H-11-oxa-4-aza-5(2,1)-benzo [d]imidazola-1(3,4),2(2,4)-dipyridinacyclo-undecaphan-3-one]",microsomal CLint [3]: 4.82 µL/min/mg; microsomal CLint [5]: 8.93 µL/min/mg; microsomal CLint [7]: 23.3 µL/min/mg
0.18,0.36,0.23,0.36,,,426,,"COCCCN1CCC2(CC1)CCN(c1ccc3nc4n(c3c1)C[C@H](C)CCCOc1ccncc1-c1cc(cc(C)n1)C(=O)N4)CC2 [Example 77, (R)-5^6-(9-(3-methoxypropyl)-3,9-diazaspiro [5.5]undecan-3-yl)-2^6,7-dimethyl-5^1H-11-oxa-4-aza-5(2,1)-benzo [d]imidazola-1(3,4),2(2,4)-dipyridinacyclo-undecaphan-3-one]",microsomal CLint [3]: 17 µL/min/mg; microsomal CLint [5]: 25.1 µL/min/mg; microsomal CLint [7]: 6.7 µL/min/mg
5.3,4.3,0.1,1.4,1840,116,1750,18.8,"Cc1cc2cc(n1)-c1cnc(F)cc1OCCC[C@@H](C)Cn1c(nc3ccc(N4CCC5(CC4)CCN(C4COC4)CC5)cc31)NC2=O [Example 81, (R)-1^6-fluoro-2^6,7-dimethyl-5^6-(9-(oxetan-3-yl)-3,9-diazaspiro [5.5]undecan-3-yl)-5^1H-11-oxa-4-aza-5(2,1)-benzo[d] imidazola-1(3,4),2(2,4)-dipyridinacyclo-undecaphan-3-one]",
31,12,4,4.2,,,733,,"COC(C)(C)CC(C)N1CCC2(CCN(c3ccc4nc5n(c4c3)CCCCCOc3ccncc3-c3cc(cc(C)n3)C(=O)N5)CC2)CC1 (stereo not shown) [Example 90, 5^6-(9-(4-methoxy-4-methylpentan-2-yl)-3,9-diazaspiro[5.5]undecan-3-yl)-2^6-methyl-5^1H-11-oxa-4-aza-5(2,1)-benzo[d] imidazola-1(3,4),2(2,4)-dipyridinacyclo-undecaphan-3-one]",
,,,,96,10.5,,2.94,"Cc1cc2cc(n1)-c1cnn(C)c1OCCC[C@@H](C)CN1/C(=N/C2=O)Nc2ccc(CN3CCN(C)CC3)cc21 [compound 1, reference compound]","AUC(0-t) ([9]; mouse, po): 361 ng·h/mL; half-life ([9]; mouse, po): 4.22 h; Cmax ([9]; mouse, po, read-out: Cmax): 32.8 ng/mL"
,,,,132,27.3,,,"Cc1cc2cc(n1)-c1cnn(C)c1OCCC[C@@H](C)CN1/C(=N/C2=O)Nc2ccc(CN3CCC4(CC3)COC4)cc21 [compound 2, reference compound]",

Compound,GI50 [1] [nM],GI50 [2] [nM],GI50 [4] [nM],GI50 [8] [nM],"AUC(0-t) ([10]; rat, po) [ng·h/mL]","Cmax ([10]; rat, po, read-out: Cmax) [ng/mL]","IC50 ([6]; Homo sapiens, A-431) [nM]","half-life ([10]; rat, po) [h]",also measured
"CO[C@@H]1CCC(N2CCC3(CCN(c4ccc5nc6n(c5c4)CCCCCOc4ccncc4-c4cc(cc(C)n4)C(=O)N6)CC3)CC2)C[C@@H]1F (stereo partly drawn) [Example 15, 5^6-(9-((3S,4R)-3-fluoro-4-methoxypiperidin-1-yl)-3-azaspiro[5.5]undecan-3-yl)-2^6-methyl-5^1H-11-oxa-4-aza-5(2,1)-benzo[d]imidazola-1(3,4),2(2,4) -dipyridinacycloundecaphan-3-one]",,,,,3390,104,,,

# Reference: patent publication US20250223300A1, “MACROCYCLIC COMPOUND AND PHARMACEUTICAL COMPOSITION AND USE THEREOF” (BETTA PHARMACEUTICALS CO., LTD, priority 2022, published 2025)
